According to BigSolDB 2.1:

Question: What does the source list for `Cc1ccc(NC(=O)C(C)Cl)cc1` (stereo not given)?
Answer: solubility (mole fraction) (in 2-butanone, 271.23 K): 0.0774; solubility (mole fraction) (in 2-butanone, 275.52 K): 0.0829; solubility (mole fraction) (in 2-butanone, 280.9 K): 0.0892; solubility (mole fraction) (in 2-butanone, 285.45 K): 0.105; solubility (mole fraction) (in 2-butanone, 291.46 K): 0.115; solubility (mole fraction) (in 2-butanone, 296.73 K): 0.128; solubility (mole fraction) (in 2-butanone, 302.41 K): 0.13; solubility (mole fraction) (in 2-butanone, 307.63 K): 0.149; solubility (mole fraction) (in 2-butanone, 313.15 K): 0.173; solubility (mole fraction) (in 2-butanone, 319.11 K): 0.208; solubility (mole fraction) (in acetone, 271.96 K): 0.0616; solubility (mole fraction) (in acetone, 283.37 K): 0.0767; solubility (mole fraction) (in acetone, 287.02 K): 0.0811; solubility (mole fraction) (in acetone, 290.81 K): 0.0861; solubility (mole fraction) (in acetone, 294.37 K): 0.0917; solubility (mole fraction) (in acetone, 300.04 K): 0.105; solubility (mole fraction) (in acetone, 302.89 K): 0.114; solubility (mole fraction) (in acetone, 307.95 K): 0.136; solubility (mole fraction) (in acetone, 310.94 K): 0.15; solubility (mole fraction) (in acetone, 315.55 K): 0.155; solubility (mole fraction) (in toluene, 273.24 K): 0.00517; solubility (mole fraction) (in toluene, 278.33 K): 0.00719; solubility (mole fraction) (in toluene, 285.5 K): 0.00929; solubility (mole fraction) (in toluene, 290.93 K): 0.0125; solubility (mole fraction) (in toluene, 297.29 K): 0.0168; solubility (mole fraction) (in toluene, 301.24 K): 0.02; solubility (mole fraction) (in toluene, 307.73 K): 0.0278; solubility (mole fraction) (in toluene, 312.06 K): 0.0356; solubility (mole fraction) (in toluene, 315.66 K): 0.0413; solubility (mole fraction) (in toluene, 321.66 K): 0.0579
